Assay results: patent publication US11225480B2, “Malic enzyme inhibitors” (SUN PHARMA ADVANCED RESEARCH COMPANY LTD, priority 2019, dated 2022)
Where a name gives a salt, the structure may show the parent alone.

Legend:
[1] = molecular target: T1, human ME1 enzyme (Homo sapiens, UniProt P48163); test: ME1 inhibition assay (diaphorase/resazurin coupled fluorescence); type: biochemical; conditions: 10 μM compound concentration; read-out: Malic Enzyme 1 % inhibition (10 μM)
T1 sequence (P48163 1-572): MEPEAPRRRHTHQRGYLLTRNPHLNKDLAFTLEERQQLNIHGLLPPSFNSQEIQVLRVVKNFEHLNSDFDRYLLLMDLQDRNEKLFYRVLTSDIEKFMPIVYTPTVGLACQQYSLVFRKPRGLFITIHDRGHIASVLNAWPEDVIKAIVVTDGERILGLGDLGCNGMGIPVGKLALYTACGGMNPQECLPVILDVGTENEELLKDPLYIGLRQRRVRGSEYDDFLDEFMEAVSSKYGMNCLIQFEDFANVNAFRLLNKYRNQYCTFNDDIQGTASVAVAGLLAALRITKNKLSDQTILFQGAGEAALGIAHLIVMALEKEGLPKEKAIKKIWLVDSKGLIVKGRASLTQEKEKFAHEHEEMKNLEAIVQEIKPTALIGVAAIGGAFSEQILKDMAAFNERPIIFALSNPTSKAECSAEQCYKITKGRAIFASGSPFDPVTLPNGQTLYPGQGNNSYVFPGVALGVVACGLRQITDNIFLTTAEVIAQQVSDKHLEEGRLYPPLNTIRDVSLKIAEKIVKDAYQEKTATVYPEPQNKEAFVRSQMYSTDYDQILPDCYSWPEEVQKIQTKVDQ
Description: ME1 catalyzes the oxidative decarboxylation of malate to pyruvate with conversion of the co-factor β-NADP+ to β-NADPH. In the fluorescence assay, a coupled reaction is set up where in an enzyme, Diaphorase, utilizes NADPH generated by ME1, to convert the dye resazurin to a fluorescent molecule resorufin. Resorufin has a characteristic fluorescence with excitation/emission at 540/600 nm (SLAS Discov., 2017 April 1:2472555217706649).
The enzyme activity inhibition assay is set up in a 200 μL final reaction volume in a 96-well plate. As per the experimental design, 2 μL of the compounds at 100× the desired concentration (10 μM) in DMSO were added to the respective wells with 178 μL of assay buffer (50 mM Tris-HCl pH 7.5, 10 mM MnCl2, 2 mM L-malate, 10 μM Resazurin and 0.01 mg/ml Diapharose). The 96-well plate was incubated on a plate shaker at room temperature for 15 minutes protected from light. The well contents were gently mixed by adding 10 μL of 20 nM human ME1 enzyme to the wells and the plate was incubated on a shaker at room temperature for 5 minutes protected from light. Suitable ‘enzyme only’ and ‘no enzyme’ controls were included in the experiment. The enzymatic reaction was started by adding 10 μL of 0.3 mM D-NADP+. The reaction was gently mixed and the plate was initially left on a shaker at room temperature for −7 minutes protected from light. Later, the plate was incubated without shaking at room temperature for 2 hours. At the end of 2 hours, the fluorescence of the wells was measured at excitation 540 nm and emission 600 nm. The % enzyme activity of the compounds is obtained by normalizing the data with enzyme only (100%) and no enzyme controls (0%) using GraphPad Prism software 7.04.

[2] = molecular target: T2, human ME3 enzyme (Homo sapiens, UniProt Q16798); test: ME3 inhibition assay (diaphorase/resazurin coupled fluorescence); type: biochemical; conditions: 10 μM compound concentration; read-out: Malic Enzyme 3 % inhibition (10 μM)
T2 sequence (Q16798 1-604): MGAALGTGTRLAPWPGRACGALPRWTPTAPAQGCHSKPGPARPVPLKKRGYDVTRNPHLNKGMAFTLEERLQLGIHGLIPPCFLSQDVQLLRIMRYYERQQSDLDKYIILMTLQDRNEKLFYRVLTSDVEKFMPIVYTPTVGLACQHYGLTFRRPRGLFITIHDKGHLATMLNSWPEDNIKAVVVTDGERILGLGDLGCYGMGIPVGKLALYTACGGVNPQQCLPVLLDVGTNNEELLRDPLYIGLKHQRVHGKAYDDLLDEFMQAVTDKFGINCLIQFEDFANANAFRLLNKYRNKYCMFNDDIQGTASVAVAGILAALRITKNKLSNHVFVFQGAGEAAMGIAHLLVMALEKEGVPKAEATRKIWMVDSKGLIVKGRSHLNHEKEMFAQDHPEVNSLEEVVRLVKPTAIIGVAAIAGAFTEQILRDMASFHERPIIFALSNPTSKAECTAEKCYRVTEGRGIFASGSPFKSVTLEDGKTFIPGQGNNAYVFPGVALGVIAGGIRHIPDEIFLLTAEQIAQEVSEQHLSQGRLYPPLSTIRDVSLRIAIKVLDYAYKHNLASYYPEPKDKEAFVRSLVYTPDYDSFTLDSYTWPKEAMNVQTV
Description: ME3 catalyzes the oxidative decarboxylation of malate to pyruvate with conversion of the co-factor β-NADP+ to NADPH. In the fluorescence assay, a coupled reaction is set up wherein an enzyme, Diaphorase, utilizes NADPH generated by ME3, to convert the dye resazurin to a fluorescent molecule resorufin.
The enzyme activity inhibition assay is set up in a 200 μL final reaction volume in a 96-well plate. As per the experimental design, 2 μL of the test compounds at 100× the desired concentration (10 μM) in DMSO were added to the respective wells with 178 μL of assay buffer (50 mM Tris-HCl pH 7.5, 10 mM MnCl2, 3 mM L-malate, 50 μM Resazurin and 0.025 mg/ml Diapharose). The 96-well plate was incubated on a plate shaker at room temperature for 15 minutes protected from light. The well contents were gently mixed by adding 10 μL of 20 nM human ME3 enzyme to the wells and the plate was incubated on a shaker at room temperature for 5 minutes protected from light. Suitable enzyme only and no enzyme controls were included in the experiment. The enzyme reaction was started by adding 10 μL of 1 mM D-NADP+. The reaction was gently mixed and the plate was initially left on a shaker at room temperature for ˜7 minutes protected from light. Later, the plate was incubated without shaking at room temperature for 3 hours. At the end of 3 hours, the fluorescence of the wells was measured at excitation 540 nm and emission 600 nm.

SMILES	inhibition at 10 µM [1] [%]	inhibition at 10 µM [2] [%]
O=C(Cc1ccc(O)cc1)N1CCN(c2ccc(O)cc2)CC1 [I.4, 2-(4-Hydroxy-phenyl)-1-[4-(4-hydroxy-phenyl)-piperazin-1-yl]-ethanone]	> 90	> 90
O=C(Cc1ccc(C(F)(F)F)cc1)N1CCN(c2ccc(O)cc2)CC1 [I.28, 1-[4-(4-Hydroxy-phenyl)-piperazin-1-yl]-2-(4-trifluoro-methyl-phenyl)-ethanone]	> 90	> 90
O=C(Cc1ccc(F)cc1F)N1CCN(c2ccc(O)cn2)CC1 [I.91, 2-(2,4-Difluoro-phenyl)-1-[4-(5-hydroxy-pyridine-2-yl)-piperazin-1-yl]-ethanone]	–	> 90
O=C(CCC12CC3CC(CC(C3)C1)C2)N1CCN(c2ccc(O)cn2)CC1 [I.98, 3-(1-Adamantyl)-1-[4-(5-hydroxy-2-pyridyl)-piperazin-1-yl]propan-1-one]	–	> 90
CCCCOc1ccc(/C=C/C(=O)N2CCN(c3ccc(O)cc3)CC2)cc1 [I.12, 3-(4-Butoxy-phenyl)-1-[4-(4-hydroxy-phenyl)-piperazin-1-yl]-propenone]	–	> 90
O=C(c1cccn2c(-c3ccc(C(F)(F)F)cc3)cnc12)N1CCN(c2ccc(O)cc2)CC1 [I.31, [4-(4-hydroxy-phenyl)-piperazin-1-yl]-[3-(4-trifluoromethyl-phenyl)-imidazo[1,2-a]pyridin-8-yl]-methanone]	–	> 90
O=C(c1cc(-c2ccccc2)cc(-c2ccccc2)c1)N1CCN(c2ccc(O)cc2)CC1 [I.27, (3,5-Diphenyl-phenyl)-[4-(4-hydroxy-phenyl)-piperazin-1-yl]methanone]	–	> 90
O=C(c1cccc(-c2cccc3[nH]ccc23)c1)N1CCN(c2ccc(O)cn2)CC1 [I.113, [4-(5-hydroxypyridin-2-yl)-piperazin-1-yl]-[3-(1H-indol-4-yl)phenyl]methanone]	–	> 90
O=C(CSc1ccc([N+](=O)[O-])cn1)N1CCN(c2ccc(O)cn2)CC1 [I.97, 1-[4-(5-hydroxy-pyridin-2-yl)-piperazin-1-yl]-2-(5-nitro-pyridin-2-ylsulfanyl)-ethanone]	–	> 90
O=C(CCc1ccc2ccccc2c1)N1CCN(c2ccc(O)cc2)CC1 [I.23, 1-[4-(4-Hydroxy-phenyl)-piperazin-1-yl]-3-naphthalen-2-yl-propan-1-one]	–	> 90
O=C(c1cccc2cc3ccccc3cc12)N1CCN(c2ccc(O)cc2)CC1 [I.25, Anthracen-1-yl-[4-(4-hydroxy-phenyl)-piperazin-1-yl]-methanone]	–	> 90
O=C(CCc1ccc(O)cc1)N1CCN(c2ccc(O)cn2)CC1 [I.100, 3-(4-Hydroxy-phenyl)-1-[4-(5-hydroxy-pyridin-2-yl)-piperazin-1-yl]-propan-1-one]	–	> 90
O=C(C1CCCCC1)N1CCN(c2ccc(O)cn2)CC1 [I.118, Cyclohexyl-[4-(5-hydroxy-2-pyridyl)-piperazin-1-yl]methanone]	–	> 90
O=C(C(c1ccccc1)N1CCOCC1)N1CCN(c2ccc(O)cn2)CC1 (stereo not shown) [I.117, 1-[4-(5-hydroxy-2-pyridyl)piperazin-1-yl]-2-morpholino-2-phenyl-ethanone]	–	> 90
O=C(/C=C/c1ccc(Cl)cc1)N1CCN(c2ccc(O)cn2)CC1 [I.78, (E)-3-(4-Chlorophenyl)-1-[4-(5-hydroxy-pyridin-2-yl)-piperazin-1-yl]-propenone]	–	> 90
COc1cc(CC(=O)N2CCN(c3ccc(O)cc3)CC2)cc(OC)c1OC [I.3, 1-[4-(4-Hydroxy-phenyl)-piperazin-1-yl]-2-(3,4,5-trimethoxy-phenyl)-ethanone]	> 90	> 90
CCCCOc1ccc2[nH]cc(C(=O)N3CCN(c4ccc(O)cc4)CC3)c2c1 [I.14, (5-Butoxy-1H-indol-3-yl)-[4-(4-hydroxy-phenyl)-piperazin-1-yl]-methanone]	–	> 90
COc1ccc(CCC(=O)N2CCN(c3ccc(O)cn3)CC2)cc1 [I.101, 3-(4-Methoxy-phenyl)-1-[4-(5-hydroxy-pyridin-2-yl)-piperazin-1-yl]-propan-1-one hydrochloride]	–	> 90
O=C(C(c1ccccc1)C1CCCCC1)N1CCN(c2ccc(O)cn2)CC1 (stereo not shown) [I.99, 2-Cyclo-hexyl-1-[4-(5-hydroxy-2-pyridyl)-piperazin-1-yl]-2-phenyl-ethanone]	–	> 90
CC(=O)N[C@@H](C(=O)N1CCN(c2ccc(O)cc2)CC1)c1ccccc1 [I.19, N-{(1R)-2-[4-(4-Hydroxy-phenyl)-piperazin-1-yl]-2-oxo-1-phenyl-ethyl}acet-amide]	–	> 90
O=C(c1cccn2ccnc12)N1CCN(c2ccc(O)cc2)CC1 [I.29, [4-(4-Hydroxy-phenyl)-piperazin-1-yl]-imidazo[1,2-a]124yridine-8-yl-methanone]	–	> 90
O=C(CCc1ccc(Br)cc1)N1CCN(c2ccc(O)cn2)CC1 [I.103, 3-(4-Bromo-phenyl)-1-[4-(5-hydroxy-pyridin-2-yl)-piperazin-1-yl]-propan-1-one]	–	> 90
COCCOc1ccc(CCC(=O)N2CCN(c3ccc(O)cn3)CC2)cc1 [I.114, 1-[4-(5-Hydroxy-pyridin-2-yl)-piperazin-1-yl]-3-[4-(2-methoxy-ethoxy)-phenyl]-propan-1-one dihydro-chloride]	–	> 90
O=C(c1cn(Cc2ccccc2)c2ccccc12)N1CCN(c2ccc(O)cc2)CC1 [I.15, (1-Benzyl-1H-indol-3-yl)-[4-(4-hydroxy-phenyl)-piperazin-1-yl]-methanone]	–	> 90
O=C(c1cnc2ccccc2c1)N1CCN(c2ccc(O)cc2)CC1 [I.24, [4-(4-Hydroxy-phenyl)-piperazin-1-yl]-quinolin-3-yl-methanone]	–	> 90
